Consider 59 compounds from PubChem BioAssay AID504860 (Southern Research Specialized Biocontainment Screening …, 2011).

In experiment [1] the test system is M. tuberculosis H37Rv growth inhibition, glycerol-free medium. The experiment in a line: confirmation, H37Rv, purified and synthesized compounds, set 4 (AID 504860). The note with it: for IC50: measured here: growth inhibition IC50.
Experiment in experiment [2]: as above
The note with it: M. tuberculosis H37Rv growth inhibition, glycerol-free medium; at 100 µM (top of the series).

The source made the active and inactive calls. The rule behind the calls is not given here.

A word on the IC50: it is the concentration that gives 50% inhibition. Low readings indicate greater potency in that assay, high ones weaker potency in that assay. For `Cc1cc(Br)ccc1NC(=O)c1cnc(N2CCN(c3ccccn3)CC2)c2ccccc12`, the IC50 in experiment [1] amounted to 11.4 µM.

A word on the inhibition: it is the relative decrease from the control value, in per cent. `CCOC(=O)CSc1nc(C)c(C)c(=O)[nH]1`: in experiment [2], the inhibition was 8.77% (inactive).

As for `COC(=O)c1ccc(CNc2c(N3CCCC3)c(=O)c2=O)cc1`, in experiment [2], the inhibition is 4.83% (inactive).

For orientation: IC90 means the point of the concentration-response curve where the effect stands at 90%. For the compound `COC(=O)C(C)Oc1ccc(Cc2ncc(C(F)(F)F)cc2Cl)cc1` (stereo not drawn), in experiment [1], the concentration for an effect of 90% (IC90) is 5.63 µM and the IC50 is 3.62 µM.

On to `O=C(CSc1nc2c(c(=O)[nH]1)CCCC2)NC1CCCCC1`, for which, in experiment [1], the IC90 is < 0.01 µM and the IC50 was < 0.01 µM.

On to `NC(=O)CSc1nc2ccccc2c(=O)[nH]1`, for which the inhibition in experiment [2] was 10.4% (inactive).

Regarding `Cc1c[nH]c(=S)[nH]c1=O`, the inhibition in experiment [2] was 2.03% (inactive).

Turning to `O=C(CSc1ccccn1)NC1CCCCC1`, the inhibition in experiment [2] was 6.13% (inactive).

`Cc1nc(SCC(=O)N(C)c2ccccc2)[nH]c(=O)c1C`: the inhibition in experiment [2] is 6.73% (inactive).

Take `O=C(CSc1nc2c(c(=O)[nH]1)CCC2)NC1CCCCC1`: in experiment [1], the IC90 is < 0.01 µM and the 50% inhibitory concentration (IC50) was < 0.01 µM.

On to `Cc1ccc(NC(=O)COC(=O)CCc2c[nH]c3ccccc23)cc1[N+](=O)[O-]`, for which, in experiment [1], the concentration for an effect of 90% (IC90) was 7.41 µM and the IC50 was determined as 3.2 µM.

As to `Cc1cnc(SCC(=O)NC2CCCCC2)[nH]c1=O`, the inhibition in experiment [2] is 3.92% (inactive).

Turning to `CCSc1nc(C)c(C)c(=O)[nH]1`, in experiment [2], the inhibition was 2.48% (inactive).

Turning to `CC(Sc1nc2ccccc2c(=O)[nH]1)C(=O)NC1CCCCC1` (stereo not drawn), the inhibition in experiment [2] was 6.58% (inactive).

As for `O=C(CSc1nc2ccccc2c(=O)[nH]1)N1CCOCC1`, the inhibition in experiment [2] is 11.1% (inactive).

As for `COc1ccc(NC(=O)CSc2nc3ccccc3c(=O)[nH]2)cc1`, in experiment [2], the inhibition was 11.4% (inactive).

With `Cc1cccc(/C=C/C(=O)c2ccc([N+](=O)[O-])o2)c1`, in experiment [1], the IC90 is 2.22 µM and the IC50 is 1.46 µM.

Turning to `CC(C)CCNC(=O)CSc1nc2c(c(=O)[nH]1)CCC2`, in experiment [1], the IC90 is 2.69 µM and the IC50 worked out at 1.68 µM.

Regarding `CCC(Sc1nc2c(c(=O)[nH]1)CCC2)C(=O)Nc1cccc(OC)c1` (stereo not drawn), the inhibition in experiment [2] is -0.78% (inactive).

On to `Cc1ccc(NC(=O)CSc2nc3ccccc3c(=O)[nH]2)cc1Cl`, for which the inhibition in experiment [2] is 7.6% (inactive).

Regarding `Cc1ccc(C(=O)N/N=C(/CC(=O)c2cccs2)C(F)(F)F)cc1`, in experiment [1], the IC90 is 2.83 µM and the IC50 was found to be 1.33 µM.

Regarding `c1ccc(/N=C2\N=C(Nc3ccccn3)c3ccccc32)nc1`, in experiment [1], the 90% effect concentration (IC90) was 2.46 µM and the IC50 was 1.68 µM.

As to `O=c1[nH]c(SCc2ccccc2Cl)nc2c1CCCC2`, the inhibition in experiment [2] was 9.5% (inactive).

Regarding `Cc1cc(=O)[nH]c(=S)[nH]1`, in experiment [2], the inhibition is -3.23% (inactive).

As for `Cc1nc(SCC(N)=O)[nH]c(=O)c1C`, the inhibition in experiment [2] was 4.67% (inactive).

On to `CCOC1OC(=O)C(Cl)=C1Nc1ccccc1C` (stereo not drawn), for which, in experiment [1], the concentration for an effect of 90% (IC90) was 9.47 µM and the IC50 worked out at 3.2 µM.

In the case of `CC(C)CCNC(=O)CSc1nc2ccccc2c(=O)[nH]1`, in experiment [1], the concentration for an effect of 90% (IC90) is 0.21 µM and the IC50 was < 0.01 µM.

Take `CN1CCC(NC(=O)CSc2nc3ccccc3c(=O)[nH]2)CC1`: the inhibition in experiment [2] was 8.01% (inactive).

In the case of `COc1cccc(NC(=O)CSc2nc3ccccc3c(=O)[nH]2)c1`, in experiment [2], the inhibition is 4.59% (inactive).

For `COC(=O)C(Nc1nc(SCC(=O)NC2CCCCC2)nc2ccccc12)c1ccccc1` (stereo not drawn), the inhibition in experiment [2] was 5.93% (inactive).

As to `CC1CCN(C(=O)C2CCN(c3nnc(-n4cccc4)s3)CC2)CC1`, in experiment [1], the IC90 is 7.33 µM and the IC50 came to 3.2 µM.

Take `Cc1cc(=O)[nH]c(SCC(=O)NC2CCCCC2)n1`: the inhibition in experiment [2] was -0.61% (inactive).

Consider `O=C(CSc1nc2ccccc2c(=O)[nH]1)NC1CCCC1`, for which, in experiment [1], the IC90 is 0.85 µM and the IC50 worked out at 0.43 µM.

With `O=c1[nH]c(=S)[nH]c2ccccc12`, the inhibition in experiment [2] is 2.16% (inactive).

Regarding `CN(C)C(=O)CSc1nc2ccccc2c(=O)[nH]1`, the inhibition in experiment [2] was 9.4% (inactive).

In the case of `CC1CCN(C(=O)CSc2nc3ccccc3c(=O)[nH]2)CC1`, the inhibition in experiment [2] was 8.81% (inactive).

On to `Nc1cc(=O)[nH]c(SCC(=O)NC2CCCCC2)n1`, for which, in experiment [2], the inhibition is -0.72% (inactive).

In the case of `Cc1[nH]c2ccccc2c1C(=O)COC(=O)c1ccc([N+](=O)[O-])s1`, in experiment [1], the IC90 was 5.21 µM and the IC50 is 2.53 µM.

As to `CCSc1nc2ccccc2c(=O)[nH]1`, in experiment [2], the inhibition is 10.8% (inactive).

For the compound `CC[N+](C)(CC)CCCCOc1ccc2c(c1)C(=O)c1cc(OCCCC[N+](C)(CC)CC)ccc1-2`, in experiment [1], the IC90 was 3.06 µM and the half-maximal inhibitory concentration (IC50) is 2.14 µM.

Regarding `Cc1[nH]c(=S)[nH]c(=O)c1C`, the inhibition in experiment [2] was 6.28% (inactive).

Turning to `O=C(CSc1nc2ccccc2c(=O)[nH]1)NC1CCCCC1`, in experiment [1], the IC90 was 0.52 µM and the IC50 came to 0.31 µM.

For the compound `COc1cccc(NC(=O)CSc2nc3c(c(=O)[nH]2)CCC3)c1`, the inhibition in experiment [2] was -4.12% (inactive).

As to `CN(C(=O)CSc1nc2ccccc2c(=O)[nH]1)C1CCCCC1`, in experiment [2], the inhibition is 9.68% (inactive).

Regarding `CNC(=O)CSc1nc2ccccc2c(=O)[nH]1`, in experiment [1], the 90% effect concentration (IC90) was 99.1 µM and the half-inhibitory concentration (IC50) was > 68.7 µM.

As for `Cc1nc(SCC(=O)NC2CCCC2)[nH]c(=O)c1C`, in experiment [1], the IC90 was 15.6 µM and the IC50 came to 9.11 µM.

Take `CCC(Sc1nc2ccccc2c(=O)[nH]1)C(=O)NC1CCCCC1` (stereo not drawn): the inhibition in experiment [2] is 3.23% (inactive).

As to `Cn1c(SCC(=O)NC2CCCCC2)nc2ccccc2c1=O`, the inhibition in experiment [2] is 6.07% (inactive).

For the compound `O=C(CSc1nccc(=O)[nH]1)NC1CCCCC1`, in experiment [2], the inhibition was 7.67% (inactive).

With `Nc1c(C(=O)NC2CCCCC2)nsc1C(=O)OCC(=O)NC1CCCCC1`, in experiment [1], the concentration for an effect of 90% (IC90) was 8.13 µM and the IC50 amounted to 4.25 µM.

On to `Cc1cccc(-c2oc3ccc(-c4ccc5c(c4)OCO5)cc3c2C#Cc2cncn2C)c1`, for which, in experiment [1], the IC90 was 3.08 µM and the concentration for half-maximal inhibition (IC50) came to 2.5 µM.

For the compound `Cc1nc(SCC(=O)NCCC(C)C)[nH]c(=O)c1C`, in experiment [1], the IC90 is 13.3 µM and the IC50 was 8.78 µM.

Turning to `CCC(Sc1nc2ccccc2c(=O)[nH]1)C(=O)Nc1cccc(OC)c1` (stereo not drawn), in experiment [2], the inhibition was 14.3% (inactive).

`O=C(CSc1nc2ccccc2c(=O)[nH]1)NCc1ccc(Cl)cc1`: in experiment [1], the IC90 is 1.58 µM and the IC50 was determined as 1.07 µM.

`CC(C)NC(=O)CSc1nc2ccccc2c(=O)[nH]1`: in experiment [1], the IC90 was 19.3 µM and the IC50 is 11.5 µM.

For `Cc1cc(C)n2nc(N)c(N=Nc3ccccc3)c2n1`, in experiment [1], the IC90 is 6.75 µM and the 50% inhibitory concentration (IC50) is 4.45 µM.

Take `Cc1nc(SCc2ccccc2Cl)[nH]c(=O)c1C`: the inhibition in experiment [2] was 6.97% (inactive).

Turning to `CCOc1ccc(-c2cc(C)[n+](CCc3ccc(OC)c(OC)c3)c(-c3ccc(OCC)cc3)c2)cc1`, in experiment [1], the 90% effect concentration (IC90) was 1.63 µM and the 50% inhibitory concentration (IC50) amounted to 1.01 µM.

As to `O=C(CSc1ncccn1)NC1CCCCC1`, in experiment [2], the inhibition is 0.1% (inactive).
